Experimental data published in publication PMC4305368, “Influence of Dimerization of Lipopeptide Laur-Orn-Orn-Cys–NH2 and an N-terminal Peptide of Human Lactoferricin on Biological Activity” (International Journal of Peptide Research and Therapeutics, 2014).
Like-named read-outs stand apart in the source and are kept apart here. Bridge positions count the residues as written; N and C are the ends. Square brackets hold non-standard residues; d marks the D form. Ends that are not written are not given here. Peptide text beside a SMILES is read from it. I, II: the chains in the order shown. * marks the point of attachment. X1 = CCCCCCCCCCCC(=O)N[C@@H](CCCN)C(=O)N[C@@H](CCCN)C(=O)N[C@@H](CS*)C(N)=O; Lauroyl = CCCCCCCCCCCC(=O)*; Orn = NCCC[C@H](N)C(=O)O

Columns and labels:
[1] = test system: Streptococcus pyogenes; assay type: cell-based
Method: (§1) The reference strains were supplied by the Polish Collection of Microorganisms (Polish Academy of Sciences, Institute of Immunology and Experimental Therapy, Wroclaw, Poland). Minimal inhibitory concentration (MIC) was determined by the microbroth dilution method outlined by the National Committee for Clinical Laboratory Standards ([2003]). The following microbial strains were tested: Gram-positive: Rhodococcus equi ATCC 6939, Staphylococcus epidermidis, S. aureus ATCC 6538, Streptococcus pyogenes and Enterococcus faecalis; Gram-negative: E. coli ATCC 8739, Pseudomonas aeruginosa and fungi: C. albicans ATCC10231. Bacteria were suspended in Mueller–Hinton II broth (Sigma-Aldrich) at initial inocula of 5 × 10^5 cfu (colony-forming units)/mL, while the Sabouraud 5 % dextrose broth of a pH of 7.4 (Sigma-Aldrich) was used for fungi (at initial inoculum of 5 × 10^3 cfu/mL). Microbial cells in polystyrene 96-well plates were exposed to the peptides at adequate concentrations (range 1–512 μg/mL) for 18 h at 37 °C (bacterial strains) or for 48 h at 25 °C (fungi). MIC was taken as the lowest drug concentration at which observable growth was inhibited. Experiments were performed in triplicate on three different days.

[2] = test system: Pseudomonas aeruginosa; assay type: cell-based
Method: as §1

[3] = test system: Enterococcus faecalis; assay type: cell-based
Method: as §1

[4] = test system: Rhodococcus equi ATCC 6939; assay type: cell-based
Method: as §1

[5] = test system: Staphylococcus epidermidis; assay type: cell-based
Method: as §1

[6] = test system: E. coli ATCC 8739; assay type: cell-based, Escherichia coli
Method: as §1

[7] = test system: S. aureus ATCC 6538; assay type: cell-based, Staphylococcus aureus
Method: as §1

[8] = test system: C. albicans ATCC10231; assay type: cell-based, Candida albicans
Method: as §1

[9] = test system: human red blood cells; experiment: Haemolysis assay; assay type: cell-based; conditions: human red blood cells 4 % [v/v] in PBS, 2 h at 37 °C, range 1-512 µg/mL, assessed visually; 1 % Triton positive control
Method: The haemolytic activity of the peptides was tested against human red blood cells, essentially as described previously (Kamysz et al. [2007]). Fresh human blood was collected into tubes containing EDTA as anticoagulant. Red blood cells were separated by centrifugation at 500×g for 12 min at room temperature and the plasma was aspirated. Erythrocytes were washed three times with PBS, separated by centrifugation (500×g, 12 min) and resuspended in PBS. Peptides I–V were serially diluted in PBS (range 1–512 μg/mL) and 50 μL was added to 50 μL of the erythrocyte suspension. The final concentration of red blood cells was 4 % [v/v]. The results were assessed visually after incubation for 2 h at 37 °C. As a positive control, 1 % Triton was used, whereas PBS served as a negative control.

Antimicrobial activity (MIC) ([1]; 18 h)	Antimicrobial activity (MIC) ([2]; 18 h)	Antimicrobial activity (MIC) ([3]; 18 h)	Antimicrobial activity (MIC) ([4]; ATCC 6939, 18 h)	Antimicrobial activity (MIC) ([5]; 18 h)	Antimicrobial activity (MIC) ([6]; ATCC 8739, 18 h)	Antimicrobial activity (MIC) ([7]; ATCC 6538, 18 h)	Antimicrobial activity (MIC) ([8]; ATCC10231, 48 h, pH 7.4)	Compound	Antimicrobial activity (MIC) ([1]; Streptococcus pyogenes, Mueller-Hinton II broth, 5 × 10^5 cfu/mL, 18 h at 37 °C, range 1-512 µg/mL, triplicate on three different days)	Antimicrobial activity (MIC) ([2]; Pseudomonas aeruginosa, Mueller-Hinton II broth, 5 × 10^5 cfu/mL, 18 h at 37 °C, range 1-512 µg/mL, triplicate on three different days)	Antimicrobial activity (MIC) ([3]; Enterococcus faecalis, Mueller-Hinton II broth, 5 × 10^5 cfu/mL, 18 h at 37 °C, range 1-512 µg/mL, triplicate on three different days)	Antimicrobial activity (MIC) ([4]; Rhodococcus equi, Mueller-Hinton II broth, 5 × 10^5 cfu/mL, 18 h at 37 °C, range 1-512 µg/mL, triplicate on three different days)	Antimicrobial activity (MIC) ([5]; Staphylococcus epidermidis, Mueller-Hinton II broth, 5 × 10^5 cfu/mL, 18 h at 37 °C, range 1-512 µg/mL, triplicate on three different days)	Antimicrobial activity (MIC) ([6]; Escherichia coli, Mueller-Hinton II broth, 5 × 10^5 cfu/mL, 18 h at 37 °C, range 1-512 µg/mL, triplicate on three different days)	Haemolytic activity [9]	Antimicrobial activity (MIC) ([7]; Staphylococcus aureus, Mueller-Hinton II broth, 5 × 10^5 cfu/mL, 18 h at 37 °C, range 1-512 µg/mL, triplicate on three different days)	Antimicrobial activity (MIC) ([8]; Candida albicans, Sabouraud 5 % dextrose broth pH 7.4, 5 × 10^3 cfu/mL, 48 h at 25 °C, range 1-512 µg/mL, triplicate on three different days)
2 µg/mL	4 µg/mL	4 µg/mL	1 µg/mL	2 µg/mL	8 µg/mL	2 µg/mL	>512 µg/mL	CCCCCCCCCCCC(=O)N[C@@H](CCCN)C(=O)N[C@@H](CCCN)C(=O)N[C@@H](CSSC[C@H](NC(=O)[C@H](CCCN)NC(=O)[C@H](CCCN)NC(=O)CCCCCCCCCCC)C(N)=O)C(N)=O [Peptide IV] (I: Lauroyl-[Orn]-[Orn]-Cys-NH2 / II: Lauroyl-[Orn]-[Orn]-Cys-NH2; disulfide I:3-II:3)	–	–	–	–	–	–	–	–	–
2 µg/mL	8 µg/mL	32 µg/mL	2 µg/mL	1 µg/mL	128 µg/mL	4 µg/mL	>512 µg/mL	CCCCCCCCCCCC(=O)N[C@@H](CCCN)C(=O)N[C@@H](CCCN)C(=O)N[C@@H](CSSC[C@H](NC(=O)[C@H](Cc1c[nH]c2ccccc12)NC(=O)[C@H](CCC(N)=O)NC(=O)[C@@H](NC(=O)[C@H](CO)NC(=O)[C@H](CCCNC(=N)N)NC(=O)[C@H](CCCNC(=N)N)NC(=O)[C@H](CCCNC(=N)N)NC(=O)[C@H](CCCNC(=N)N)NC(=O)CN)C(C)C)C(=O)N[C@@H](C)C(N)=O)C(N)=O [Peptide V] (H-GRRRRSVQWC(X1)A-NH2; N-terminus assumed)	–	–	–	–	–	–	–	–	–
–	–	–	–	–	–	–	–	GRRRRSVQWCA-NH2 [Peptide I, hLF(1–11)–NH2]	2 µg/mL	32 µg/mL	256 µg/mL	16 µg/mL	2 µg/mL	512 µg/mL	>512 µg/mL	64 µg/mL	128 µg/mL
4 µg/mL	8 µg/mL	2 µg/mL	2 µg/mL	2 µg/mL	8 µg/mL	2 µg/mL	128 µg/mL	CCCCCCCCCCCC(=O)N[C@@H](CCCN)C(=O)N[C@@H](CCCN)C(=O)N[C@@H](CS)C(N)=O [Peptide III, Laur-Orn-Orn-Cys–NH2] (Lauroyl-[Orn]-[Orn]-Cys-NH2)	–	–	–	–	–	–	–	–	–
